Reference: patent US20240294523A1, “HETEROCYCLIC LACTAM COMPOUND, AND PREPARATION METHOD THEREFOR AND PHARMACEUTICAL USE THEREOF” (Genfleet Therapeutics (Shanghai) Inc., priority 2021, published 2024)

These compounds were tested on U937 cells (assay: Inhibition of TNF-α-induced programmed necrosis of U937 cells (CellTiter-Glo)). Details: U-937, human TNF-α + Q-VD-Oph, 48 hours.
Format: cell-based
Experimental: The U937 cell line used in the following test examples was from ATCC, number: CRL-1593.2, batch number: 63479999, culture medium: RPMI-1640+10% FBS.
(§1) The reagents used, suppliers and product numbers of the reagents were as follows: RPMI-1640, Gibco, 11875-093; FBS, Gibco, 10099-141; Trypsin-EDTA, Gibco, 25200-072; PS, Gibco, 15140-122; CellTiter Glo , Progema, G7573; DMSO, VWR AMRESCO, 0231-500ML; TNF-α protein (human, recombinant), Peprotech, 300-01A; Q-VD-Oph, MCE, HY-12305; V-shaped bottom plate, Corning, 3894; 384-well low-flange white flat-bottom microplate, Corning, 3570; RIPK1, Eurofins, 16-022; MOPS, BDH, 441644J; EDTA, Sigma, E5134; Myelin basic protein, Sigma, M1891-25.00 MG; Magnesium acetate, Merck, DU008026; ATP (non-radioactive label), Sigma, A-7699; ATP (radioactive label), Hartmann Analytic, DU008054; Phosphoric acid, Metlab, DU003000; Z-VAD: Shanghai Yuang Chemical Industry, YA02401.
The compounds to be tested were dissolved in DMSO and diluted with DMSO into a series of concentration gradients. 5000 U937 cells/well were seeded in a 384-well white plate. Compounds of corresponding concentrations were added to each well and mixed evenly with the cells. At the same time, human TNF-a and Q-VD-Oph were added to induce programmed necrosis of the cells. The cells were placed at 37° C., 5% CO2 incubator for 48 hours. CellTiter-Glo reagent was used for detection, and the chemiluminescence reading was detected using a microplate reader after sufficient lysis reaction. The test results were calculated using the formula SR (%)=(RLU compound−RLU blank)/(RLU high control−RLU blank)×100%. The survival rate and the final concentration of the corresponding compound were drawn into a curve and fitted using four parameters. Inhibitory IC50 on TNF-α-induced cell necrosis of the compounds were calculated.

Row | Compound | IC50 [µM]
1 | C[C@@H](C(F)F)N1CCc2c(nn(Cc3c(F)cccc3F)c2Cl)C1=O (single isomer, unassigned) [Compound Z9-1] | 0.256
2 | C[C@H](C(F)F)N1CCc2c(nn(Cc3c(F)cccc3F)c2Br)C1=O (single isomer, unassigned) [Compound Z24-1] | 0.119
3 | O=C1c2nn(Cc3ccccc3)c(Cl)c2CCN1CC(F)F [Compound Z1, 2-benzyl-3-chloro-6-(2,2-difluoroethyl)-2,4,5,6-tetrahydro-7H-pyrazolo[3,4-c]pyridine-7-one] | 0.461
4 | O=C1c2nn(Cc3ccccc3F)c(Cl)c2CCN1CC(F)F [Compound Z2, 3-chloro-6-(2,2-difluoroethyl)-2-(2-fluorobenzyl)-2,4,5,6-tetrahydro-7H-pyrazolo[3,4-c]pyridin-7-one] | 0.279
5 | N#CCCN1CCc2c(nn(Cc3c(F)cccc3F)c2Cl)C1=O [Compound Z4, 3-(3-chloro-2-(2,6-difluorobenzyl)-7-oxo-2,4,5,7-tetrahydro-6H-pyrazolo[3,4-c]pyridine-6-yl)propionitrile] | 1.36
6 | O=C1c2nn(Cc3cc(F)ccc3F)c(Cl)c2CCN1CC(F)F [Compound Z5, 3-chloro-2-(2,5-difluorobenzyl)-6-(2,2-difluoroethyl)-2,4,5,6-tetrahydro-7H-pyrazolo[3,4-c]pyridin-7-one] | 0.205
7 | O=C1c2nn(Cc3c(F)ccc(F)c3F)c(Cl)c2CCN1CC(F)F [Compound Z6, 3-chloro-6-(2,2-difluoroethyl)-2-(2,3,6-trifluorobenzyl)-2,4,5,6-tetrahydro-7H-pyrazolo[3,4-c]pyridin-7-one] | 0.482
8 | N#CCC1(N2CCc3c(nn(Cc4c(F)cccc4F)c3Cl)C2=O)CC1 [Compound Z7, 2-(1-(3-chloro-2-(2,6-difluorobenzyl)-7-oxo-2,4,5,7-tetrahydro-6H-pyrazolo[3,4-c]pyridin-6-yl)cyclopropyl)acetonitrile] | 1.83
9 | O=C1c2nn(Cc3ccccc3Cl)c(Cl)c2CCN1CC(F)F [Compound Z8, 3-chloro-2-(2-chlorobenzyl)-6-(2,2-difluoroethyl)-2,4,5,6-tetrahydro-7H-pyrazolo[3,4-c]pyridin-7-one] | 0.253
10 | O=C1c2nn(Cc3c(F)cccc3F)c(Cl)c2CCN1C1(C(F)F)CC1 [Compound Z10, 3-chloro-2-(2,6-difluorobenzyl)-6-(1-(difluoromethyl)cyclopropyl)-2,4,5,6-tetrahydro-7H-pyrazolo[3,4-c]pyridin-7-one] | 0.676
11 | O=C1c2nn(Cc3c(F)cccc3F)c(Cl)c2CCN1CC1(F)CC1 [Compound Z11, 3-chloro-2-(2,6-difluorobenzyl)-6-((1-fluorocyclopropyl)methyl)-2,4,5,6-tetrahydro-7H-pyrazolo[3,4-c]pyridin-7-one] | 1.6
12 | CC(C(F)F)N1CCc2c(nn(Cc3ccccc3OC(F)(F)F)c2Cl)C1=O (centres unmarked) [Compound Z12, 3-chloro-6-(1,1-difluoropropan-2-yl)-2-(2-(trifluoromethoxy)benzyl)-2,4,5,6-tetrahydro-7H-pyrazolo[3,4-c]pyridin-7-one] | 1.38
13 | O=C1c2nn(Cc3c(F)cccc3F)c(Cl)c2CCN1C(C(F)F)C1CC1 (centres unmarked) [Compound Z13, 3-chloro-6-(1-cyclopropyl-2,2-difluoroethyl)-2-(2,6-difluorobenzyl)-2,4,5,6-tetrahydro-7H-pyrazolo[3,4-c]pyridin-7-one] | 0.12
14 | CC(C(F)F)N1CCc2c(nn(Cc3cc(F)cc(F)c3)c2Cl)C1=O (centres unmarked) [Compound Z14, 3-chloro-2-(3,5-difluorobenzyl)-6-(1,1-difluoropropan-2-yl)-2,4,5,6-tetrahydro-7H-pyrazolo[3,4-c]pyridin-7-one] | 0.982
15 | CCC(C(F)F)N1CCc2c(nn(Cc3c(F)cccc3F)c2Cl)C1=O (centres unmarked) [Compound Z15, 3-chloro-2-(2,6-difluorobenzyl)-6-(1,1-difluorobutan-2-yl)-2,4,5,6-tetrahydro-7H-pyrazolo[3,4-c]pyridin-7-one] | 0.127
16 | CC(COc1ccc(C#N)cn1)N1CCc2c(nn(Cc3ccccc3)c2Cl)C1=O (centres unmarked) [Compound Z16, 6-(2-(2-benzyl-3-chloro-7-oxo-2,4,5,7-tetrahydro-6H-pyrazolo[3,4-c]pyridine-6-yl)propoxy)nicotinonitrile] | 2.95
17 | CC(C(F)F)N1CCc2c(C(F)(F)F)nn(Cc3c(F)cccc3F)c2C1=O (centres unmarked) [Compound Z17, 1-(2,6-difluorobenzyl)-6-(1,1-difluoropropan-2-yl)-3-(trifluoromethyl)-1,4,5,6-tetrahydro-7H-pyrazolo[3,4-c]pyridin-7-one] | 1.82
18 | CC(C(F)F)N1CCc2c(nn(Cc3ccc(F)cc3F)c2Cl)C1=O (centres unmarked) [Compound Z18, 3-chloro-2-(2,4-difluorobenzyl)-6-(1,1-difluoropropan-2-yl)-2,4,5,6-tetrahydro-7H-pyrazolo[3,4-c]pyridin-7-one] | 0.194
19 | CC(C(F)F)N1CCc2c(nn(Cc3ccccc3F)c2Cl)C1=O (centres unmarked) [Compound Z19, 3-chloro-6-(1,1-difluoropropan-2-yl)-2-(2-fluorobenzyl)-2,4,5,6-tetrahydro-7H-pyrazolo[3,4-c]pyridin-7-one] | 0.168
20 | CCC(=O)N1CCc2c(nn(Cc3c(F)cccc3F)c2Cl)C1=O [Compound Z20, 3-chloro-2-(2,6-difluorobenzyl)-6-propionyl-2,4,5,6-tetrahydro-7H-pyrazolo[3,4-c]pyridin-7-one] | 0.3
21 | CC(C(F)F)N1CCc2c(nn(Cc3cc(F)c(F)cc3F)c2Cl)C1=O (centres unmarked) [Compound Z21, 3-chloro-6-(1,1-difluoropropan-2-yl)-2-(2,4,5-trifluorobenzyl)-2,4,5,6-tetrahydro-7H-pyrazolo[3,4-c]pyridin-7-one] | 0.534
22 | CC(C(F)F)N1CCc2c(nn(Cc3c(F)cc(F)cc3F)c2Cl)C1=O (centres unmarked) [Compound Z22, 3-chloro-6-(1,1-difluoropropan-2-yl)-2-(2,4,6-trifluorobenzyl)-2,4,5,6-tetrahydro-7H-pyrazolo[3,4-c]pyridin-7-one] | 0.222
23 | O=C1c2nn(Cc3c(F)cccc3F)c(Cl)c2CCN1C1CCOCC1 [Compound Z23, 3-chloro-2-(2,6-difluorobenzyl)-6-(tetrahydro-2H-pyran-4-yl)-2,4,5,6-tetrahydro-7H-pyrazolo[3,4-c]pyridin-7-one] | 0.311
24 | CC(C(F)F)N1CCc2c(nn(Cc3c(F)cccc3F)c2Br)C1=O (centres unmarked) [Compound Z24, 3-bromo-2-(2,6-difluorobenzyl)-6-(1,1-difluoropropan-2-yl)-2,4,5,6-tetrahydro-7H-pyrazolo[3,4-c]pyridin-7-one] | 0.0489
25 | CC1(C)CC(N2CCc3c(nn(Cc4c(F)cccc4F)c3Cl)C2=O)CCO1 (centres unmarked) [Compound Z25, 3-chloro-2-(2,6-difluorobenzyl)-6-(2,2-dimethyltetrahydro-2H-pyran-4-yl)-2,4,5,6-tetrahydro-7H-pyrazolo[3,4-c]pyridin-7-one] | 0.464
26 | CC(=O)N1CCc2c(nn(Cc3c(F)cccc3F)c2Cl)C1=O [Compound Z26, 6-acetyl-3-chloro-2-(2,6-difluorobenzyl)-2,4,5,6-tetrahydro-7H-pyrazolo[3,4-c]pyridin-7-one] | 0.361

These compounds were tested against RIPK1 (Homo sapiens (Human), UniProt Q13546) (assay: Inhibitory activity against RIPK1 enzyme (33P-ATP, MBP substrate)). Details: 36 nM RIPK1, 0.33 mg/ml MBP, 155 μM ATP, 2 hours, room temperature.
Chain of RIPK1 (Q13546 whole entry): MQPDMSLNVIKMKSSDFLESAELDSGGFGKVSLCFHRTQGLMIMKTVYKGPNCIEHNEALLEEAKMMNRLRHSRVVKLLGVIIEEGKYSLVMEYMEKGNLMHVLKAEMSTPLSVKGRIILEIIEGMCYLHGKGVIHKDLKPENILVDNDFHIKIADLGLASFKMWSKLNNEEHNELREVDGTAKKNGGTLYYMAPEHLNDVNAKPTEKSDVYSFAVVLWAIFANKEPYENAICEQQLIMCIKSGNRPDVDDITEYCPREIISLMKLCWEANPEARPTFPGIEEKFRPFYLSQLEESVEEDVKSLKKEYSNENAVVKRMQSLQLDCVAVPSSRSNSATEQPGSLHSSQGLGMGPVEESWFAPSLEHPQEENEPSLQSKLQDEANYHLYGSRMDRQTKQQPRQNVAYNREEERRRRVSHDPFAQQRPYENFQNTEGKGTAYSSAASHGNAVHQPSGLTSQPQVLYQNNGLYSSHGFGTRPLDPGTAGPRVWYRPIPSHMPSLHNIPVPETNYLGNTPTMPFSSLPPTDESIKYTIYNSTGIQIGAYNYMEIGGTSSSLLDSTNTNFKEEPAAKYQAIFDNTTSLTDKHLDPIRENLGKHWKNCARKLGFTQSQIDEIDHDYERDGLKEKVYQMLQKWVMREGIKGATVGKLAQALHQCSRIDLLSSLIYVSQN
Format: biochemical
Experimental: as §1
The compound to be tested was dissolved in DMSO to prepare a 10 mM stock solution, diluted 3.16 times with DMSO into a series of concentration gradients, and then MOPS pH 7.0 buffer solution was used to dilute 50 times to prepare a working solution, and mixed well with 36 nM RIPK1 (final concentration), 0.33 mg/ml substrate MBP. Afterwards, 10 mM magnesium ions and 155 μM phosphorus 33 isotope-labeled ATP were added to react, The final concentration of DMSO was 2%. After the reaction was proceeded at room temperature for 2 hours, phosphoric acid was added to terminate. The final reaction system was processed and detected using a liquid scintillation counter. After the test results are subtracted from the blank control and compared with the reading value of the control group to convert to the activity percentage, which was plotted as a curve with the final concentration of the corresponding compound, and four-parameter fitting was used to obtain the IC50 of the compound that inhibits RIPK1 enzyme activity.

Row | Compound | IC50 [µM]
27 | O=C1c2nn(Cc3ccccc3)c(Cl)c2CCN1CC(F)F [Compound Z1, 2-benzyl-3-chloro-6-(2,2-difluoroethyl)-2,4,5,6-tetrahydro-7H-pyrazolo[3,4-c]pyridine-7-one] | 0.065
28 | O=C1c2nn(Cc3ccccc3F)c(Cl)c2CCN1CC(F)F [Compound Z2, 3-chloro-6-(2,2-difluoroethyl)-2-(2-fluorobenzyl)-2,4,5,6-tetrahydro-7H-pyrazolo[3,4-c]pyridin-7-one] | 0.03
29 | O=C1c2nn(Cc3ccccc3)c(Cl)c2CCCN1CC(F)F [Compound Z42] | 0.184
